The record followed here is ChEMBL document CHEMBL5029155, “Design, Synthesis, and Biological Evaluation of Stable Colchicine-Binding Site Tubulin Inhibitors 6-Aryl-2-benzoyl-pyridines as Potential Anticancer Agents” (J Med Chem, 2021).

A value given as a limit tells only on which side of the number the result lay.

One series concerns MDA-MB-453. As to the kind of experiment: Antiproliferative activity against human MDA-MB-453 cells assessed as cell growth inhibition incubated for 72 hrs by MTS assay. In kind it is functional, cell-based. The note with it: MDA-MB-453, 72 h.
Series [1] in a line: Metabolic stability in human liver microsomes assessed as half life in presence of NADPH regenerating system by UPLC-MS analysis. In kind it is ADME, Microsome. The note with it: for t1/2: microsomes.
The nature of series [2]: Metabolic stability in mouse liver microsomes assessed as half life in presence of NADPH regenerating system by UPLC-MS analysis. The note with it: for t1/2: microsomes. In kind it is ADME, Microsome.
The nature of series [3]: Metabolic stability in mouse liver microsomes assessed as intrinsic clearance in presence of NADPH regenerating system by UPLC-MS analysis. In kind it is ADME, Microsome. The note with it: read-out: CLH. On the technique in general: Liver microsomes are vesicles of endoplasmic reticulum, rich in cytochrome P450 enzymes.
Another series concerns A-375. As to the kind of experiment: Antiproliferative activity against human A-375 cells assessed as cell growth inhibition incubated for 72 hrs by MTS assay. In kind it is functional, cell-based. The following applies: A-375, 72 h. (In general: Tetrazolium assays rely on reduction of a dye to a coloured formazan, in cell work by metabolically active cells.)
A further series concerns SK-BR-3. Nature of the series: Antiproliferative activity against human SK-BR-3 cells assessed as cell growth inhibition incubated for 72 hrs by MTS assay. In kind it is functional, cell-based. The following applies: SK-BR-3, 72 h.
The subject of another series is MDA-MB-231. Nature of the series: Antiproliferative activity against human MDA-MB-231 cells assessed as cell growth inhibition incubated for 72 hrs by MTS assay. In kind it is functional, cell-based. The note with it: MDA-MB-231, 72 h.
In a further series the test system is RPMI-7951. Nature of the series: Antiproliferative activity against human RPMI-7951 cells assessed as cell growth inhibition incubated for 72 hrs by MTS assay. The note with it: RPMI-7951, 72 h. In kind it is functional, cell-based.
The subject of a further series is M14. As to the kind of experiment: Antiproliferative activity against human M14 cells assessed as cell growth inhibition incubated for 72 hrs by MTS assay. In kind it is functional, cell-based. The following applies: M14, 72 h.
The nature of series [4]: Metabolic stability in human liver microsomes assessed as intrinsic clearance in presence of NADPH regenerating system by UPLC-MS analysis. The following applies: read-out: CLH. In kind it is ADME, Microsome.

The IC50 is the point on the concentration scale where inhibition reaches its midpoint. On to `COc1cc(C(=O)c2cc(OC)c(OC)c(OC)c2)nc(-c2ccc(C)cc2)c1`, for which the IC50 was determined as 0.005 µM with MDA-MB-453; 0.0079 µM in the series with A-375; 0.0045 µM with SK-BR-3; 0.0111 µM with MDA-MB-231; 0.0068 µM in the series on RPMI-7951; 0.0077 µM in the series with M14. The t1/2 in series [1] is 27.6 min; in series [2], above 240 min. In addition, the CLint scaled in [3] was 13 mL/min/kg; in series [4], 45 mL/min/kg.

Turning to `COc1cc(C(=O)c2ccnc(-c3ccc(C)c(O)c3)n2)cc(OC)c1OC`, the IC50 with MDA-MB-453 was determined as 0.0028 µM; in the series with A-375, 0.0068 µM; with SK-BR-3, 0.012 µM; with MDA-MB-231, 0.0151 µM; in the series with RPMI-7951, 0.0072 µM; with M14, 0.0054 µM. Moreover, the figures for the t1/2 in series [1] and in series [2] were 9 min and 78.6 min, respectively. The CLint scaled in series [3] worked out at 43.8 mL/min/kg; in series [4], 142 mL/min/kg.

A word on the half-life: it is how long it takes for the measured level to halve. Turning to `COc1cc(C(=O)c2cccc(-c3ccc4c(c3)CCN4)n2)cc(OC)c1OC`, the half-inhibitory concentration (IC50) with MDA-MB-453 worked out at 0.0059 µM; in the series on A-375, 0.005 µM; in the series on SK-BR-3, 0.0055 µM; in the series on MDA-MB-231, 0.0053 µM; with RPMI-7951, 0.0059 µM; in the series on M14 it was 0.0056 µM. Further, the half-life in [1] (liver microsomes) stood at 15 min; in series [2] (liver microsomes) it was 4.2 min. In addition, the figures for the CLint scaled in series [3] and in series [4] were 818 mL/min/kg and 83.6 mL/min/kg, respectively.

On to `COc1cc(C(=O)c2cc(C)cc(-c3ccc(C)c(N)c3)n2)cc(OC)c1OC`, for which the half-maximal inhibitory concentration (IC50) in the series with MDA-MB-453 came to 0.0055 µM; with A-375 it was 0.0088 µM; in the series on SK-BR-3, 0.0035 µM; with MDA-MB-231, 0.0055 µM; in the series with RPMI-7951 it was 0.0063 µM; with M14, 0.0059 µM.

In the case of `COc1cc(C(=O)c2cccc(-c3ccc(N(C)C)cc3)n2)cc(OC)c1OC`, the 50% inhibitory concentration (IC50) is 0.0337 µM in the series with MDA-MB-453; 0.0538 µM in the series on A-375; 0.0545 µM with SK-BR-3; 0.0427 µM in the series on MDA-MB-231; 0.044 µM in the series on RPMI-7951; 0.0635 µM in the series with M14.

For the molecule `COc1cc(C(=O)c2cccc(-c3ccc(C(F)F)cc3)n2)cc(OC)c1OC`, the IC50 turned out to be 0.004 µM in the series with MDA-MB-453; 0.003 µM in the series with A-375; 0.0038 µM in the series with SK-BR-3; 0.0047 µM with MDA-MB-231; 0.0028 µM in the series with RPMI-7951; 0.0047 µM in the series with M14. The t1/2 in [1] is recorded as 5.4 min; in series [2], 12.6 min. In addition, the CLint scaled in series [3] worked out at 271 mL/min/kg; in series [4], 240 mL/min/kg.

As to `COc1cc(C(=O)c2cncc(-c3c[nH]c4ccccc34)n2)cc(OC)c1OC`, the IC50 amounted to 0.0132 µM in the series with MDA-MB-453; 0.0167 µM with A-375; 0.035 µM in the series with SK-BR-3; 0.0124 µM in the series on MDA-MB-231; 0.0144 µM in the series with RPMI-7951; 0.0192 µM with M14.

For the molecule `COc1cc(C(=O)c2cc(F)cc(-c3ccc(C(F)F)cc3)c2)cc(OC)c1OC`, the half-inhibitory concentration (IC50) in the series with MDA-MB-453 came to 0.0897 µM; in the series with A-375 it was 0.0809 µM; in the series with SK-BR-3, 0.0523 µM; with MDA-MB-231, 0.045 µM; in the series on RPMI-7951, 0.0408 µM; in the series on M14, 0.0563 µM.

Take `COc1cc(C(=O)c2nc(-c3ccc(C)cc3)ccc2F)cc(OC)c1OC`: the concentration for half-maximal inhibition (IC50) came out at 0.0025 µM in the series on MDA-MB-453; 0.0037 µM in the series with A-375; 0.0019 µM in the series on SK-BR-3; 0.0023 µM with MDA-MB-231; 0.0034 µM in the series with RPMI-7951; 0.0026 µM in the series with M14. Moreover, the t1/2 is given as 9.6 min in series [1] and 12.6 min in series [2]. For the same molecule, the results for the CLint scaled in series [3] and in series [4] were 273 mL/min/kg and 133 mL/min/kg, respectively.

Consider `COc1cc(-n2ccc3ccc(-c4ccc(C)cc4)nc32)cc(OC)c1OC`, for which the IC50 in the series on MDA-MB-453 turned out to be 0.139 µM; in the series with A-375, 0.175 µM; in the series with SK-BR-3, 0.0829 µM; in the series on MDA-MB-231 it was 0.515 µM; in the series with RPMI-7951, 0.205 µM; with M14, 0.0765 µM.

Take `COc1cc(C(=O)c2nc(-c3ccc(C)c(O)c3)[nH]c2Br)cc(OC)c1OC`: the IC50 in the series on MDA-MB-453 was 0.0681 µM; in the series with A-375 it was 0.085 µM; with SK-BR-3, 0.119 µM; in the series with MDA-MB-231, 0.0709 µM; with RPMI-7951 it was 0.133 µM; in the series with M14, 0.0763 µM.

In the case of `COc1cc(C(=O)c2cncc(-c3cccc4[nH]ncc34)n2)cc(OC)c1OC`, the IC50 in the series on MDA-MB-453 is 0.0515 µM; in the series with A-375 it was 0.0208 µM; in the series on SK-BR-3, 0.0461 µM; in the series on MDA-MB-231, 0.038 µM; in the series with RPMI-7951, 0.0238 µM; in the series on M14 it was 0.0219 µM.

Turning to `COc1cc(C(=O)c2nc(-c3ccc(C)c(O)c3)[nH]c2C)cc(OC)c1OC`, the IC50 came to 0.0281 µM in the series on MDA-MB-453; 0.0523 µM in the series with A-375; 0.0256 µM in the series on SK-BR-3; 0.112 µM with MDA-MB-231; 0.056 µM in the series on RPMI-7951; 0.0466 µM with M14.

On to `COc1cc(C(=O)c2cccc(-c3ccc(C)cc3)n2)cc2c1OCCO2`, for which the concentration for half-maximal inhibition (IC50) came to 0.0032 µM in the series on MDA-MB-453; 0.0036 µM in the series on A-375; 0.0032 µM in the series on SK-BR-3; 0.0053 µM with MDA-MB-231; 0.0031 µM in the series on RPMI-7951; 0.0045 µM with M14. The results for the t1/2 in series [1] and in series [2] were 7.2 min and 1.8 min, respectively. For the same molecule, the CLint scaled in [3] was found to be 1900 mL/min/kg; in series [4], 172 mL/min/kg.

As for `COCCOc1c(OC)cc(C(=O)c2cccc(-c3ccc(C)cc3)n2)cc1OC`, the IC50 was determined as 0.0021 µM with MDA-MB-453; 0.0037 µM in the series on A-375; 0.0042 µM with SK-BR-3; 0.0066 µM in the series with MDA-MB-231; 0.005 µM in the series on RPMI-7951; 0.0024 µM with M14. The t1/2 turned out to be 9 min in series [1] and 8.4 min in series [2]. Moreover, the results for the CLint scaled in [3] and in series [4] were 397 mL/min/kg and 136 mL/min/kg, respectively.

With `COc1cc(C(=O)c2cc(OC)c(OC)c(OC)c2)nc(-c2ccc(C)c(O)c2)c1`, the IC50 amounted to 0.0147 µM with MDA-MB-453; 0.0222 µM in the series with A-375; 0.0169 µM in the series on SK-BR-3; 0.0176 µM with MDA-MB-231; 0.0172 µM in the series with RPMI-7951; 0.0175 µM in the series with M14. In addition, the values for the t1/2 in [1] and in series [2] were 42.6 min and 45 min, respectively. The CLint scaled worked out at 76.7 mL/min/kg in series [3] and 29.2 mL/min/kg in [4].

For `COc1cc(C(=O)c2ccnc(-c3c[nH]c4ccccc34)n2)cc(OC)c1OC`, the IC50 in the series with MDA-MB-453 was determined as 0.0142 µM; with A-375, 0.0361 µM; in the series with SK-BR-3 it was 0.0171 µM; in the series on MDA-MB-231, 0.0316 µM; with RPMI-7951, 0.0297 µM; in the series on M14, 0.0291 µM.

`COc1cc(C(=O)c2cncc(-c3ccc(C)cc3)n2)cc(OC)c1OC`: the 50% inhibitory concentration (IC50) in the series with MDA-MB-453 was 0.0067 µM; with A-375, 0.0025 µM; in the series on SK-BR-3 it was 0.0071 µM; in the series on MDA-MB-231 it was 0.0048 µM; with RPMI-7951, 0.0022 µM; in the series with M14 it was 0.0017 µM. The t1/2 in series [1] was determined as 20.4 min; in series [2], 42.6 min. For the same molecule, in series [3], the CLint scaled is 65.8 mL/min/kg.

As for `COc1cc(C(=O)c2cccc(-c3ccc(C)c(NC(C)=O)c3)n2)cc(OC)c1OC`, the IC50 in the series on MDA-MB-453 worked out at 0.0193 µM; in the series on A-375, 0.0288 µM; with SK-BR-3, 0.0152 µM; in the series with MDA-MB-231, 0.0334 µM; with RPMI-7951 it was 0.0212 µM; with M14, 0.0126 µM.
